Test results from article PMC2871279 (Nature, 2009).

Legend:
dvUT [1] = biological target: T1, dvUT (Nitratidesulfovibrio vulgaris, UniProt Q72CX3); assay: […]-urea uptake in Xenopus oocytes; format: cell-based; details: read-out: % inhibition at 1 mM
T1 sequence (Q72CX3 1-337): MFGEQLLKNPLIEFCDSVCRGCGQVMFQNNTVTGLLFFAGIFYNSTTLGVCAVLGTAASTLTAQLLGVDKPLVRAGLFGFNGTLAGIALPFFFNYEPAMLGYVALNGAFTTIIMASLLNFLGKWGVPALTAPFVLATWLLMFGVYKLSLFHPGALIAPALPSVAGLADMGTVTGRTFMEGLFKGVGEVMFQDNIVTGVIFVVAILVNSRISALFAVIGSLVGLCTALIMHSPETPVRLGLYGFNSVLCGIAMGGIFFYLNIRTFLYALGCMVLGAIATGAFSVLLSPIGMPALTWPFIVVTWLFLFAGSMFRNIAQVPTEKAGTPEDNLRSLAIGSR

human UT-B = biological target: T2, human UT-B (Homo sapiens, UniProt Q13336); assay: […]-urea uptake in Xenopus oocytes; format: cell-based; details: read-out: % inhibition at 1 mM
T2 sequence (Q13336 1-389): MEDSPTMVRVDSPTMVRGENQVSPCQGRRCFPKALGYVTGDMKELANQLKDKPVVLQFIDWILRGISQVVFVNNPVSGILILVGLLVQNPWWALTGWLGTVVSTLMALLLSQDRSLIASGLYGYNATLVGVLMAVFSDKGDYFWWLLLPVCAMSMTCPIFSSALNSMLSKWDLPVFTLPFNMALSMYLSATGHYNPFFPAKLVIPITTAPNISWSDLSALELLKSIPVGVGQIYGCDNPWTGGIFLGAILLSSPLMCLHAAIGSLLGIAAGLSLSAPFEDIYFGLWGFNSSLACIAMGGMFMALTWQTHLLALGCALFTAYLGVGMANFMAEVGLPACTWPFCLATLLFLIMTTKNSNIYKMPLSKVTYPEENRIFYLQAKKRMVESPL

dvUT [2] = biological target: T1, dvUT; assay: SPA isotopic dilution of […]-urea; format: binding
dvUT [3] = biological target: T1, dvUT; assay: scintillation proximity saturation binding, Hill fit

| Structure (SMILES) | inhibition at 1000 µM (dvUT [1]) | inhibition at 1000 µM (human UT-B) | IC50 (dvUT [2]) | Kd (dvUT [3]) |
| --- | --- | --- | --- | --- |
| O=C(CCc1ccc(O)cc1)c1c(O)cc(O)cc1O [phloretin] | 87% | 86% |  |  |
| NC(N)=O [urea] |  |  | 2300 ± 700 µM | 2300 ± 140 µM |
